Laboratory results: patent US20260130933A1, “PHARMACEUTICAL COMPOSITION FOR PREVENTION OR TREATMENT OF NEPHROPATHY AND/OR DIABETES MELLITUS, COMPRISING ENAVOGLIFLOZIN” (DAEWOONG PHARMACEUTICAL CO., LTD., priority 2022, published 2026)

Test: Example 3: phase 3 trial, enavogliflozin 0.3 mg vs dapagliflozin 10 mg once a day for 24 weeks added to metformin and gemigliptin in patients with type 2 diabetes (same endpoints, rescue drug)
Type: in vivo, human
Description: 1) when Metformin (≥1,000 mg/Day) was Administered at a Constant Dose for at Least 8 Weeks Prior to Pre-Visit (Pre-Screening) • Metformin (≥1,000 mg/day) and gemigliptin (50 mg/day) were co-administered during the 8-week stabilization period. […] 4) when Metformin (≥1,000 mg/Day) and Gemigliptin (50 mg/Day) were Co-Administered at Constant Doses for at Least 8 Weeks Prior to Pre-Visit (Prescreening) • Without a separate stabilization period, Pre-visit (pre-screening) was Visit 1 (screening).
Subjects who met the inclusion/exclusion criteria continued to receive metformin and gemigliptin while receiving a placebo of the clinical trial drug in a single-blind (subject-blinded) state for a 2-week run-in period.
Here, the randomized subjects were stratified according to the administration therapy (co-administration with two or less agents (one or two agents) or three or more agents) of a conventional hypoglycemic agent (before washout of another hypoglycemic agent) within 24 weeks prior to obtaining written informed consent and by an HbA1c value (<8% or ≥8%) at Visit 1 (screening) measured in the central laboratory.
The randomized subjects were administered two tablets of the clinical trial drug corresponding to each administration group once a day, and then visited the institution at weeks 6, 12, 18, and 24 during the 24-week administration period to conduct efficacy and safety assessments. In addition, during the clinical trial period, they were instructed to exercise regularly and control their diet without changing their daily life patterns.
• 1) Change in HbA1c at week 24 after administration of clinical trial drug compared to Visit 2 (randomization)
• 1) Change in HbA1c at each time point of weeks 6, 12, and 18 after administration of clinical trial drug compared to Visit 2 (randomization) • 2) Change in FPG at each time point of weeks 6, 12, 18, and 24 after administration of clinical trial drug compared to Visit 2 (randomization) • 3) Proportion of subjects achieving HbA1c<7% at each time point of weeks 6, 12, 18, and 24 after administration of clinical trial drug • 4) Proportion of subjects achieving HbA1c<6.5% at each time point of weeks 6, 12, 18, and 24 after administration of clinical trial drug • 5) Proportion of subjects achieving therapeutic response (HbA1c change (HbA1c at Visit 2—HbA1c at each evaluation time point)>0.5% or HbA1c<7% at each evaluation time point compared to Visit 2 (randomization)) at each time point of weeks 6, 12, 18, and 24 after administration of clinical trial drug • 6) Proportion of subjects achieving therapeutic response (HbA1c change (HbA1c at Visit 2—HbA1c at each evaluation time point)>0.7% or HbA1c<7% at each evaluation time point compared to Visit 2 (randomization)) at each time point of weeks 6, 12, 18, and 24 after administration of clinical trial drug • 7) Proportion of subjects achieving therapeutic response (HbA1c change (HbA1c at Visit 2—HbA1c at each evaluation time point)>1% or HbA1c<7% at each evaluation time point compared to Visit 2 (randomization)) at each time point of weeks 6, 12, 18, and 24 after administration of clinical trial drug

[1] = week 6, modified per-protocol set 1, enavogliflozin 0.3 mg, dapagliflozin 10 mg
[2] = week 6, modified per-protocol set 2
[3] = week 6, modified per-protocol set 2, enavogliflozin 0.3 mg, dapagliflozin 10 mg
[4] = week 6, per-protocol set, enavogliflozin 0.3 mg, dapagliflozin 10 mg

CCOc1ccc(Cc2cc([C@@H]3O[C@H](CO)[C@@H](O)[C@H](O)[C@H]3O)ccc2Cl)cc1 [Dapagliflozin, reference compound]
HbA1c, Mean (SD) (Baseline, PPS): 7.83%
HbA1c, Median (Baseline, PPS): 7.64%
HbA1c change from baseline, ANCOVA LS mean (SE) (Week 24, PPS): −0.86 % p
HbA1c change from baseline, Mean (SD) (Week 24, PPS): −0.89 % p
HbA1c change from baseline, Median (Week 24, PPS): −0.86 % p
HbA1c, Mean (SD) (Week 24, PPS): 6.94%
HbA1c, Median (Week 24, PPS): 6.81%
FPG change from baseline, LS mean (SE) (week 6): −22.71(1.39) mg/dL
HDL-C change from baseline, LS mean (SE) (week 6): 1.13(0.56) mg/dL
HOMA-IR change from baseline, LS mean (SE) (week 6): −0.99(0.14)
HOMA-β change from baseline, LS mean (SE) (week 6): 3.20(3.04)
HbA1c change from baseline, LS mean (SE) (week 6): −0.70(0.03) % p
LDL-C change from baseline, LS mean (SE) (week 6): 1.91(1.78) mg/dL
UACR change from baseline, LS mean (SE) (week 6): −14.85(3.36) g/kg
UGCR change from baseline, LS mean (SE) (week 6): 45.75(2.14) mg/mg
adiponectin change from baseline, LS mean (SE) (week 6): 0.37(0.33) μg/mL
body weight change from baseline, LS mean (SE) (week 6): −1.80(0.16) kg
diastolic blood pressure change from baseline, LS mean (SE) (week 6): −1.88(0.67) mmHg
fasting C-peptide change from baseline, LS mean (SE) (week 6): −0.04(0.02) ng/mL
leptin change from baseline, LS mean (SE) (week 6): −2.03(0.45) ng/mL
systolic blood pressure change from baseline, LS mean (SE) (week 6): −3.49(0.87) mmHg
total cholesterol change from baseline, LS mean (SE) (week 6): 2.63(1.93) mg/dL
triglyceride change from baseline, LS mean (SE) (week 6): −5.39(4.38) mg/dL
Change from baseline in HDL-C, ANCOVA LS mean [1]: 1.13 mg/dL
Change from baseline in HDL-C, Mean [1]: 0.94 mg/dL
Change from baseline in HDL-C, Median [1]: 1.00 mg/dL
Change from baseline in LDL-C, ANCOVA LS mean [1]: 1.91 mg/dL
Change from baseline in LDL-C, Mean [1]: 1.40 mg/dL
Change from baseline in LDL-C, Median [1]: 1.00 mg/dL
Change from baseline in total cholesterol, ANCOVA LS mean [1]: 2.63 mg/dL
Change from baseline in total cholesterol, Mean [1]: 1.55 mg/dL
Change from baseline in total cholesterol, Median [1]: 2.00 mg/dL
Change from baseline in triglycerides, ANCOVA LS mean [1]: -5.39 mg/dL
Change from baseline in triglycerides, Mean [1]: -10.00 mg/dL
Change from baseline in triglycerides, Median [1]: 1.00 mg/dL
Fasting HDL-C, Mean [1]: 48.39 mg/dL
Fasting HDL-C, Median [1]: 48.00 mg/dL
Fasting LDL-C, Mean [1]: 78.50 mg/dL
Fasting LDL-C, Median [1]: 70.00 mg/dL
Fasting total cholesterol, Mean [1]: 145.04 mg/dL
Fasting triglycerides, Mean [1]: 121.81 mg/dL
Fasting triglycerides, Median [1]: 98.00 mg/dL
fasting Total cholesterol, Median [1]: 136.00 mg/dL
Change from baseline in diastolic blood pressure, ANCOVA LS mean [2]: −1.88 mmHg
Change from baseline in diastolic blood pressure, Mean [2]: −1.57 mmHg
Change from baseline in diastolic blood pressure, Median [2]: −2.00 mmHg
Diastolic blood pressure, Mean [2]: 72.20 mmHg
Diastolic blood pressure, Median [2]: 72.00 mmHg
Change from baseline in systolic blood pressure, ANCOVA LS mean [3]: −3.49 mmHg
Change from baseline in systolic blood pressure, Mean [3]: −3.23 mmHg
Change from baseline in systolic blood pressure, Median [3]: −3.50 mmHg
Systolic blood pressure, Mean [3]: 120.64 mmHg
Systolic blood pressure, Median [3]: 119.00 mmHg
Adiponectin, Mean (week 6, per-protocol set): 6.69 µg/mL
Adiponectin, Median (week 6, per-protocol set): 5.80 µg/mL
Change from baseline in HOMA-IR, ANCOVA LS mean (week 6, per-protocol set): −0.99
Change from baseline in HOMA-IR, Mean (week 6, per-protocol set): −0.92
Change from baseline in HOMA-IR, Median (week 6, per-protocol set): −0.72
Change from baseline in HOMA-β, ANCOVA LS mean (week 6, per-protocol set): 3.20
Change from baseline in HOMA-β, Mean (week 6, per-protocol set): 4.48
Change from baseline in HOMA-β, Median (week 6, per-protocol set): 5.30
Change from baseline in UACR, ANCOVA LS mean (week 6, per-protocol set): -14.85 g/kg
Change from baseline in UACR, Mean (week 6, per-protocol set): -7.25 g/kg
Change from baseline in UACR, Median (week 6, per-protocol set): -0.40 g/kg
Change from baseline in UGCR, ANCOVA LS mean (week 6, per-protocol set): 45.75 mg/mg
Change from baseline in UGCR, Mean (week 6, per-protocol set): 43.58 mg/mg
Change from baseline in UGCR, Median (week 6, per-protocol set): 42.62 mg/mg
Change from baseline in adiponectin, ANCOVA LS mean (week 6, per-protocol set): 0.37 µg/mL
Change from baseline in adiponectin, Mean (week 6, per-protocol set): 0.31 µg/mL
Change from baseline in adiponectin, Median (week 6, per-protocol set): 0.34 µg/mL
Change from baseline in leptin, ANCOVA LS mean (week 6, per-protocol set): -2.03 ng/mL
Change from baseline in leptin, Mean (week 6, per-protocol set): -2.04 ng/mL
Change from baseline in leptin, Median (week 6, per-protocol set): -1.26 ng/mL
HOMA-IR (insulin resistance), Mean (week 6, per-protocol set): 1.90
HOMA-IR (insulin resistance), Median (week 6, per-protocol set): 1.66
HOMA-β (beta-cell function), Mean (week 6, per-protocol set): 44.56
HOMA-β (beta-cell function), Median (week 6, per-protocol set): 36.75
Leptin, Mean (week 6, per-protocol set): 8.78 ng/mL
Leptin, Median (week 6, per-protocol set): 7.03 ng/mL
UACR, Mean (week 6, per-protocol set): 23.20 g/kg
UACR, Median (week 6, per-protocol set): 11.20 g/kg
UGCR, Mean (week 6, per-protocol set): 45.12 mg/mg
UGCR, Median (week 6, per-protocol set): 43.37 mg/mg
Body weight, Mean [4]: 65.20 kg
Change from baseline in FPG, ANCOVA LS mean [4]: -22.71 mg/dL
Change from baseline in FPG, Mean [4]: -22.87 mg/dL
Change from baseline in FPG, Median [4]: -18.50 mg/dL
Change from baseline in HbA1c, ANCOVA LS mean [4]: −0.70 % p
Change from baseline in HbA1c, Mean [4]: −0.72 % p
Change from baseline in HbA1c, Median [4]: −0.65 % p
Change from baseline in body weight, ANCOVA LS mean [4]: -1.80 kg
Change from baseline in body weight, Mean [4]: -1.68 kg
Change from baseline in body weight, Median [4]: -1.55 kg
Change from baseline in fasting C-peptide, ANCOVA LS mean [4]: -0.04 ng/mL
Change from baseline in fasting C-peptide, Mean [4]: -0.04 ng/mL
Change from baseline in fasting C-peptide, Median [4]: -0.03 ng/mL
FPG, Mean [4]: 117.64 mg/dL
FPG, Median [4]: 116.50 mg/dL
Fasting C-peptide, Mean [4]: 0.65 ng/mL
Fasting C-peptide, Median [4]: 0.63 ng/mL
HbA1c, Mean [4]: 7.10%
